This passage reports EC50 results from patent publication US11198713B2, “Agents modulating beta-catenin functions and methods thereof” (FOG PHARMACEUTICALS, INC., priority 2017, dated 2021).

Molecules are shown by their SMILES. Like-named read-outs stand apart in the source and are kept apart here. Numbered stars: 1 amine (or outer) side, 2 acyl side, 3 side chain; on linkers, the order of the positions; unused ones are H or OH. Bridge positions count the residues as written; N and C are the ends. Square brackets hold non-standard residues; d marks the D form. Peptide text beside a SMILES is read from it. X16 = C=CCOC(=O)N1CC[C@@](N[*:1])(C(=O)[*:2])C1; X10 = CN(CC=[*:3])C[C@@](C)(N[*:1])C(=O)[*:2]; X14 = O=C([C@@]1(N[*:1])CCN(CC=[*:3])C1)[*:2]; R8 = C=CCCCCCC[C@@](C)(N)C(=O)O; S8 = C=CCCCCCC[C@](C)(N)C(=O)O

The assay addresses T1, full-length beta-catenin (Axin site) (Homo sapiens, UniProt P35222).
T1 construct: 15 nM full-length beta-catenin, 20 nM FITC labeled peptide in buffer
T1 sequence (P35222 1-781): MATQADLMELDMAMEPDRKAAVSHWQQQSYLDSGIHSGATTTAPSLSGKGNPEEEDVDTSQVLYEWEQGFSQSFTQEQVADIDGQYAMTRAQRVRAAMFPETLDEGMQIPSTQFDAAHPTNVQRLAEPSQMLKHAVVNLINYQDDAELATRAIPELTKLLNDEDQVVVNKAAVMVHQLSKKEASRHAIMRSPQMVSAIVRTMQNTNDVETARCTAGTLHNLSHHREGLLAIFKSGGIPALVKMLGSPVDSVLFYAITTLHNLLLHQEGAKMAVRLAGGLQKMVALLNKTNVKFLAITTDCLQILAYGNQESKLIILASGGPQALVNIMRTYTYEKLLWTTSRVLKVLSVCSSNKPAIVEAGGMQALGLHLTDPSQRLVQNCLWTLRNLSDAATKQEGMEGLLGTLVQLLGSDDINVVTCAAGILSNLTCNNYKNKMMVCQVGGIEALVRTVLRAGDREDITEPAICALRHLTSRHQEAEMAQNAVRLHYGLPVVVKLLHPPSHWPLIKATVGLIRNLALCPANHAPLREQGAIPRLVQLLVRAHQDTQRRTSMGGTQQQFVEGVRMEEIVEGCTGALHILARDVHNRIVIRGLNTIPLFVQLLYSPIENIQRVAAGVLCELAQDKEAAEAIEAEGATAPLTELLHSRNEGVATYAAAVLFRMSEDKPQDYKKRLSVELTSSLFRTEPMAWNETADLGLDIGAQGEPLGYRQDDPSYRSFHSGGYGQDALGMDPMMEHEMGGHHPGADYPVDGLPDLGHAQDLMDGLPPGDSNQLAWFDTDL
The assay can be described thus: Competition fluorescence polarization assay (Axin site probe). The format is binding. The method, boiled down:
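Competition FP: 15 nM full-length β-catenin pre-incubated 5 min with 20 nM FITC-labelled stapled Axin-site peptide, then titrated peptide added (3-fold series from 5 μM) for 15 min in the dark. Buffer 50 mM Tris pH 8.0, 250 mM NaCl, 2% glycerol, 0.5 mM EDTA; duplicate reads.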
A general note: Fluorescence polarisation rises when a labelled molecule tumbles more slowly, as on binding a larger partner.

The mark [1] stands for this setting: competition with FITC labeled Axin-site probe, 15 nM full-length beta-catenin, read-out: FP EC50.
Where [2] appears, read: competition fluorescence polarization, Table 2, read-out: in vitro FP EC50.

For orientation: EC50 means the concentration that produces a half-maximal response. With `CC[C@H](C)[C@@H]1NC(=O)[C@](C)(NC(=O)[C@H](CCC(N)=O)NC(=O)[C@@H]2CCCN2C(C)=O)CCCCCC=CCN2CC[C@](C(=O)N[C@@H](Cc3c[nH]cn3)C(=O)N[C@H](C(=O)N[C@@H](CCCNC(=N)N)C(=O)N[C@@H](CCCNC(=N)N)C(=O)N[C@H](C(=O)N[C@@H](Cc3c[nH]c4ccccc34)C(=O)N[C@@H](CCCNC(=N)N)C(N)=O)C(C)C)C(C)C)(C2)NC(=O)[C@H](CC(=O)O)NC(=O)[C@H](CC(C)C)NC1=O` (single isomer, unassigned) [FP-0768, Ac-P-Q-R7-I-L-D-PR-H-V-R-R-V-W-R-NH2], the EC50 under setting [1] is greater than 5000 nM.

As to `CC[C@H](C)[C@@H]1NC(=O)[C@](C)(NC(=O)[C@H](CCC(N)=O)NC(=O)[C@@H]2CCCN2C(C)=O)CCCC=CCN(C)CC[C@](C)(C(=O)N[C@@H](Cc2c[nH]cn2)C(=O)N[C@H](C(=O)N[C@@H](CCCNC(=N)N)C(=O)N[C@@H](CCCNC(=N)N)C(=O)N[C@H](C(=O)N[C@@H](Cc2c[nH]c3ccccc23)C(=O)N[C@@H](CCCNC(=N)N)C(N)=O)C(C)C)C(C)C)NC(=O)[C@H](CC(=O)O)NC(=O)[C@H](CC(C)C)NC1=O` (single isomer, unassigned) [FP-0776, Ac-P-Q-R5-I-L-D-RdN-H-V-R-R-V-W-R-NH2], the EC50 under setting [1] is 580 nM.

Consider `CC[C@H](C)[C@@H]1NC(=O)[C@@](C)(NC(=O)[C@H](CCC(N)=O)NC(=O)[C@@H]2CCCN2C(C)=O)CCN(C)C(=O)OCC=CCCC[C@@](C)(C(=O)N[C@@H](Cc2c[nH]cn2)C(=O)N[C@H](C(=O)N[C@@H](CCCNC(=N)N)C(=O)N[C@@H](CCCNC(=N)N)C(=O)N[C@H](C(=O)N[C@@H](Cc2c[nH]c3ccccc23)C(=O)N[C@@H](CCCNC(=N)N)C(N)=O)C(C)C)C(C)C)NC(=O)[C@H](CC(=O)O)NC(=O)[C@H](CC(C)C)NC1=O` (single isomer, unassigned) [FP-0779c, Ac-P-Q-SdN-I-L-D-S5-H-V-R-R-V-W-R-NH2], for which the EC50 under setting [1] is 1300 nM.

As to `CC[C@H](C)[C@@H]1NC(=O)[C@](C)(NC(=O)[C@H](CCC(N)=O)NC(=O)[C@@H]2CCCN2C(C)=O)CCCN(C)CC=CCCC[C@](C)(C(=O)N[C@@H](Cc2c[nH]cn2)C(=O)N[C@H](C(=O)N[C@@H](CCCNC(=N)N)C(=O)N[C@@H](CCCNC(=N)N)C(=O)N[C@H](C(=O)N[C@@H](Cc2c[nH]c3ccccc23)C(=O)N[C@@H](CCCNC(=N)N)C(N)=O)C(C)C)C(C)C)NC(=O)[C@H](CC(=O)O)NC(=O)[C@H](CC(C)C)NC1=O` (single isomer, unassigned) [FP-0783, Ac-P-Q-ReN-I-L-D-R5-H-V-R-R-V-W-R-NH2], the EC50 under setting [1] turned out to be 1400 nM.

For `CC[C@H](C)[C@@H]1NC(=O)[C@@](C)(NC(=O)[C@H](CCC(N)=O)NC(=O)[C@@H]2CCCN2C(C)=O)CCCC=CCCC[C@@](C)(C(=O)N[C@@H](Cc2c[nH]cn2)C(=O)N[C@H](C(=O)N[C@@H](CCCNC(=N)N)C(=O)N[C@@H](CCCNC(=N)N)C(=O)N[C@H](C(=O)N[C@@H](Cc2c[nH]c3ccccc23)C(=O)N[C@@H](CCCNC(=N)N)C(N)=O)C(C)C)C(C)C)NC(=O)[C@H](CC(=O)O)NC(=O)[C@H](CC(C)C)NC1=O` (single isomer, unassigned) [FP-0787], the EC50 under setting [1] is roughly 100 nM.

Regarding `CC[C@H](C)[C@@H]1NC(=O)[C@@]2(NC(=O)[C@H](C)NC(=O)[C@@H]3CCCN3C(C)=O)CCN(C2)C(=O)OCC=CCCCCCC[C@@](C)(C(=O)N[C@@H](CCCNC(=N)N)C(=O)N[C@H](C(=O)N[C@@H](Cc2c[nH]c3ccccc23)C(N)=O)C(C)C)NC(=O)[C@H](C(C)C)NC(=O)[C@H](Cc2c[nH]cn2)NC(=O)[C@H](C)NC(=O)[C@H](CC(=O)O)NC(=O)[C@H](CC(C)C)NC1=O` [FP0005c, Ac-P-A-MC-I-L-D-A-H-V-S8-R-V-W-NH2], under setting [2], the EC50 is less than 100 nM.

Turning to `CC[C@H](C)[C@@H]1NC(=O)[C@@]2(NC(=O)[C@H](C)NC(=O)[C@@H]3CCCN3C(C)=O)CCN(CC=CCCCCCC[C@@](C)(C(=O)N[C@@H](CCCNC(=N)N)C(=O)N[C@H](C(=O)N[C@@H](Cc3c[nH]c4ccccc34)C(N)=O)C(C)C)NC(=O)[C@H](C(C)C)NC(=O)[C@H](Cc3c[nH]cn3)NC(=O)[C@H](C)NC(=O)[C@H](CC(=O)O)NC(=O)[C@H](CC(C)C)NC1=O)C2` [FP0006a, Ac-P-A-MC-I-L-D-A-H-V-S8-R-V-W-NH2] (Ac-PA[X14]ILDAHV[S8]RVW-NH2; staple 3-10), under setting [2], the EC50 was less than 100 nM.

As to `C=CCCCCCC[C@@](C)(NC(=O)[C@H](C)NC(C)=O)C(=O)N[C@H](C(=O)N[C@@H](CC(C)C)C(=O)N[C@@H](CC(=O)O)C(=O)N[C@@H](C)C(=O)N[C@@H](Cc1c[nH]cn1)C(=O)N[C@H](C(=O)N[C@@]1(C(=O)N[C@@H](CCCNC(=N)N)C(=O)N[C@H](C(=O)N[C@@H](Cc2c[nH]c3ccccc23)C(N)=O)C(C)C)CCN(C(=O)OCC=C)C1)[C@@H](C)CC)[C@@H](C)CC` [FP0217u, Ac-A-R8-I-L-D-A-H-I-MB-R-V-W-NH2] (Ac-A[R8]ILDAHI[X16]RVW-NH2), under setting [2], the EC50 is less than 100 nM.

For the compound `CC[C@H](C)[C@@H]1NC(=O)[C@H](Cc2c[nH]cn2)NC(=O)[C@H](C)NC(=O)[C@H](CC(N)=O)NC(=O)[C@H](CC(C)C)NC(=O)[C@H]([C@@H](C)CC)NC(=O)[C@](C)(NC(=O)[C@H](C)NC(C)=O)CCCCCCC=CCOC(=O)N2CC[C@@](C(=O)N[C@@H](CCCNC(=N)N)C(=O)N[C@H](C(=O)N[C@@H](Cc3c[nH]c4ccccc34)C(N)=O)C(C)C)(C2)NC1=O` [FP0218c, Ac-A-R8-I-L-N-A-H-I-MB-R-V-W-NH2], the EC50 under setting [2] is 100 to 500 nM.

Consider `CC[C@H](C)[C@@H]1NC(=O)[C@H](Cc2c[nH]cn2)NC(=O)[C@H](C)NC(=O)[C@H]([C@@H](C)O)NC(=O)[C@H](CC(C)C)NC(=O)[C@H]([C@@H](C)CC)NC(=O)[C@](C)(NC(=O)[C@H](C)NC(C)=O)CCCCCCC=CCOC(=O)N2CC[C@@](C(=O)N[C@@H](CCCNC(=N)N)C(=O)N[C@H](C(=O)N[C@@H](Cc3c[nH]c4ccccc34)C(N)=O)C(C)C)(C2)NC1=O` [FP0219c, Ac-A-R8-I-L-T-A-H-I-MB-R-V-W-NH2], for which, under setting [2], the EC50 fell in the range of 100 to 500 nM.

Turning to `CC[C@H](C)[C@@H]1NC(=O)[C@H](Cc2c[nH]cn2)NC(=O)[C@H](C)NC(=O)[C@H](CC(=O)O)NC(=O)[C@H](CC(C)C)NC(=O)[C@H]([C@@H](C)CC)NC(=O)[C@](C)(NC(=O)[C@H](C)NC(C)=O)CN(C)CC=CCCCCCC[C@@](C)(C(=O)N[C@@H](CCCNC(=N)N)C(=O)N[C@H](C(=O)N[C@@H](Cc2c[nH]c3ccccc23)C(N)=O)C(C)C)NC1=O` [FP0335a, Ac-A-ME-I-L-D-A-H-I-S8-R-V-W-NH2] (Ac-A[X10]ILDAHI[S8]RVW-NH2; staple 2-9), the EC50 under setting [2] is 100 to 500 nM.

Turning to `CC[C@H](C)[C@@H]1NC(=O)[C@H](Cc2c[nH]cn2)NC(=O)[C@H](C)NC(=O)[C@H](CC(=O)O)NC(=O)[C@H](CC(C)C)NC(=O)[C@H](C)NC(=O)[C@](C)(NC(=O)[C@H](C)NC(C)=O)CCCCCCC=CCOC(=O)N2CC[C@@](C(=O)N[C@@H](CCCNC(=N)N)C(=O)N[C@H](C(=O)N[C@@H](Cc3c[nH]c4ccccc34)C(N)=O)C(C)C)(C2)NC1=O` [FP0405c, Ac-A-R8-A-L-D-A-H-I-MB-R-V-W-NH2], the EC50 under setting [2] fell in the range of 500 to 5000 nM.

Regarding `CC[C@H](C)[C@@H]1NC(=O)[C@H](Cc2c[nH]cn2)NC(=O)[C@H](C)NC(=O)[C@H](CC(=O)O)NC(=O)[C@H](C)NC(=O)[C@H]([C@@H](C)CC)NC(=O)[C@](C)(NC(=O)[C@H](C)NC(C)=O)CCCCCCC=CCOC(=O)N2CC[C@@](C(=O)N[C@@H](CCCNC(=N)N)C(=O)N[C@H](C(=O)N[C@@H](Cc3c[nH]c4ccccc34)C(N)=O)C(C)C)(C2)NC1=O` [FP0406c, Ac-A-R8-I-A-D-A-H-I-MB-R-V-W-NH2], the EC50 under setting [2] is 100 to 500 nM.

Turning to `CC[C@H](C)[C@@H]1NC(=O)[C@H](Cc2c[nH]cn2)NC(=O)[C@H](C)NC(=O)[C@H](C)NC(=O)[C@H](CC(C)C)NC(=O)[C@H]([C@@H](C)CC)NC(=O)[C@](C)(NC(=O)[C@H](C)NC(C)=O)CCCCCCC=CCOC(=O)N2CC[C@@](C(=O)N[C@@H](CCCNC(=N)N)C(=O)N[C@H](C(=O)N[C@@H](Cc3c[nH]c4ccccc34)C(N)=O)C(C)C)(C2)NC1=O` [FP0407c, Ac-A-R8-I-L-A-A-H-I-MB-R-V-W-NH2], the EC50 under setting [2] fell in the range of 500 to 5000 nM.

With `CC[C@H](C)[C@@H]1NC(=O)[C@H](C)NC(=O)[C@H](C)NC(=O)[C@H](CC(=O)O)NC(=O)[C@H](CC(C)C)NC(=O)[C@H]([C@@H](C)CC)NC(=O)[C@](C)(NC(=O)[C@H](C)NC(C)=O)CCCCCCC=CCOC(=O)N2CC[C@@](C(=O)N[C@@H](CCCNC(=N)N)C(=O)N[C@H](C(=O)N[C@@H](Cc3c[nH]c4ccccc34)C(N)=O)C(C)C)(C2)NC1=O` [FP0408c, Ac-A-R8-I-L-D-A-A-I-MB-R-V-W-NH2], under setting [2], the EC50 was greater than 5000 nM.
